Values after ≈ are worked out from the molar mass of the structure shown. Where two headings read alike, the source gives them in different places.
Assays:
Assay type in all cases: cell-based
[1] = system: Streptococcus pyogenes 1079; assay: MIC, microtiter broth dilution (NCCLS M100-S14), S. pyogenes 1079 (ermB)
Description: (§1) The assay described herein includes a panel of bacterial strains assembled to include a variety of target pathogenic species, including representatives of macrolide resistance mechanisms that have been characterized. In many cases, both the macrolide-susceptible parent strain and the macrolide-resistant strain derived from it are available to provide a more accurate assessment of the compound's ability to circumvent the resistance mechanism. The assay is performed in microtiter trays and interpreted according to Performance Standards for Antimicrobial Susceptibility Testing; 14th Informational Supplement (M100-S14), published by The National Committee for Clinical Laboratory Standards (NCCLS) guidelines; the MIC is used to compare strains. Compounds are initially dissolved in DMSO as 40 mg/ml stock solutions.

[2] = system: Streptococcus pneumoniae 1016; assay: MIC, microtiter broth dilution (NCCLS M100-S14), S. pneumoniae 1016 (susceptible)
Description: as §1

[3] = system: Streptococcus pneumoniae 1095; conditions: microtiter broth dilution
Description: as §1

[4] = system: Streptococcus pneumoniae 1175; conditions: microtiter broth dilution
Description: as §1

[5] = S. pneumoniae 1016 (susceptible)

Structure (SMILES) | MIC S. pyogenes 1079 ([1]; S. pyogenes 1079 (ermB)) [µg/mL] | MIC S. pneumo. 1016 [2, 5] [µg/mL] | MIC S. pneumo. 1095 ([3]; S. pneumoniae 1095 (ermB)) [µg/mL] | MIC S. pneumo. 1175 ([4]; S. pneumoniae 1175 (mefA)) [µg/mL] | MIC S. pyogenes 1079 ([1]; Streptococcus pyogenes 1079) [µg/mL] | MIC S. pneumo. 1016 ([2]; Streptococcus pneumoniae 1016) [µg/mL] | MIC S. pneumo. 1095 ([3]; Streptococcus pneumoniae 1095) [µg/mL] | MIC S. pneumo. 1175 ([4]; Streptococcus pneumoniae 1175) [µg/mL]
CC[C@H]1OC(=O)[C@H](C)C(=O)[C@H](C)[C@@H](O[C@@H]2O[C@H](C)C[C@H](N(C)C)[C@H]2O)[C@](C)(OC)C[C@@H](C)C(=O)[C@H](C)[C@H]2N(CC3(C)CN(C(=O)c4cc5cccnc5[nH]4)C3)C(=O)O[C@]12C [6.23] | 64 (≈ 76.2 µM) | <0.06 | <0.06 | 0.25 (≈ 0.298 µM) |  |  |  | 
CC[C@H]1OC(=O)[C@H](C)C(=O)[C@H](C)[C@@H](O[C@@H]2O[C@H](C)C[C@H](N(C)C)[C@H]2O)[C@](C)(OC)C[C@@H](C)C(=O)[C@H](C)[C@H]2N(CC3(C)CN(C(=O)c4ccc5ncccc5c4)C3)C(=O)O[C@]12C.O=CO [6.15] | >64.00 | <0.06 | 8 | 2 |  |  |  | 
CC[C@H]1OC(=O)[C@H](C)C(=O)[C@H](C)[C@@H](O[C@@H]2O[C@H](C)C[C@H](N(C)C)[C@H]2O)[C@](C)(OC)C[C@@H](C)C(=O)[C@H](C)[C@H]2N(CC3(C)CN(C(=O)c4cccc(-n5cccn5)n4)C3)C(=O)O[C@]12C.O=CO [6.21] | >64.00 | <0.06 | 16 | 0.5 |  |  |  | 
CC[C@H]1OC(=O)[C@H](C)C(=O)[C@H](C)[C@@H](O[C@@H]2O[C@H](C)C[C@H](N(C)C)[C@H]2O)[C@](C)(OC)C[C@@H](C)C(=O)[C@H](C)[C@H]2N(CC3(C)CN(C(=O)c4ccnc5ccccc45)C3)C(=O)O[C@]12C.O=CO [6.13] | >64.00 | <0.06 | 8 | <0.06 |  |  |  | 
CC[C@H]1OC(=O)[C@H](C)C(=O)[C@H](C)[C@@H](O[C@@H]2O[C@H](C)C[C@H](N(C)C)[C@H]2O)[C@](C)(OC)C[C@@H](C)C(=O)[C@H](C)[C@H]2N(CC3(C)CN(C(=O)c4cncc5ccccc45)C3)C(=O)O[C@]12C.O=CO [6.20] | >64.00 | <0.06 | 64 | 0.5 |  |  |  | 
CC[C@H]1OC(=O)[C@H](C)C(=O)[C@H](C)[C@@H](O[C@@H]2O[C@H](C)C[C@H](N(C)C)[C@H]2O)[C@](C)(OC)C[C@@H](C)C(=O)[C@H](C)[C@H]2N(CC3(C)CN(C(=O)c4nc5ccccc5[nH]4)C3)C(=O)O[C@]12C.O=CO [6.18] | >64.00 | <0.06 | 0.25 | 0.25 |  |  |  | 
CC[C@H]1OC(=O)[C@H](C)C(=O)[C@H](C)[C@@H](O[C@@H]2O[C@H](C)C[C@H](N(C)C)[C@H]2O)[C@](C)(OC)C[C@@H](C)C(=O)[C@H](C)[C@H]2N(CC3(C)CN(C(=O)c4ccc5cccnc5c4)C3)C(=O)O[C@]12C.O=CO [6.16] | >64.00 | <0.06 | 0.12 | 0.12 |  |  |  | 
CCC1OC(=O)C(C)C(=O)C(C)C(OC2OC(C)CC(N(C)C)C2O)C(C)(OC)CC(C)C(=O)C(C)C2N(C3CN(Cc4nc5ccccc5[nH]4)C3)C(=O)OC12C (stereo not drawn) [Example 1.09, (1H-benzo[d]imidazo-2-yl)methyl] |  |  |  |  | >64.00 | <0.06 | <0.06 | 0.25 (≈ 0.313 µM)
CCC1OC(=O)C(C)C(=O)C(C)C(OC2OC(C)CC(N(C)C)C2O)C(C)(OC)CC(C)C(=O)C(C)C2N(C3CN(C(COC)c4ccnc5ncccc45)C3)C(=O)OC12C (stereo not drawn) [Example 1.81, 3-descladinosyl-11,12-dideoxy-4-O-methyl-3-oxo-12,11-(oxycarbonyl-(1-(2-(methoxy)-1R-(1,8-napthyridin-4-yl)-ethyl)-azetidin-3-yl)-imino)-erythromycin A] |  |  |  |  | 4 (≈ 4.68 µM) | <0.063 | 0.5 (≈ 0.585 µM) | <0.063
CCC1OC(=O)C(C)C(=O)C(C)C(OC2OC(C)CC(N(C)C)C2O)C(C)(OC)CC(C)C(=O)C(C)C2N(C3CN(Cc4ccc5ncccc5c4)C3)C(=O)OC12C (stereo not drawn) [Example 1.07, (quinolin-6-yl)methyl] |  |  |  |  | 16 (≈ 19.8 µM) | <0.06 | <0.06 | 0.25 (≈ 0.309 µM)
CCC1OC(=O)C(C)C(=O)C(C)C(OC2OC(C)CC(N(C)C)C2O)C(C)(OC)CC(C)C(=O)C(C)C2N(C3CN(Cc4ccc(F)c(F)c4)C3)C(=O)OC12C (stereo not drawn) [Example 1.08, 3,4-difluorobenzyl] |  |  |  |  | >64.00 | <0.06 | 0.5 (≈ 0.63 µM) | 0.25 (≈ 0.315 µM)
CCC1OC(=O)C(C)C(=O)C(C)C(OC2OC(C)CC(N(C)C)C2O)C(C)(OC)CC(C)C(=O)C(C)C2N(C3CN(Cc4ccn(-c5ccccn5)n4)C3)C(=O)OC12C (stereo not drawn) [Example 1.10] |  |  |  |  | >64.00 | <0.06 | <0.06 | 0.12 (≈ 0.145 µM)
CC[C@H]1OC(=O)[C@H](C)C(=O)[C@H](C)[C@@H](O[C@@H]2O[C@H](C)C[C@H](N(C)C)[C@H]2O)[C@](C)(OC)C[C@@H](C)C(=O)[C@H](C)[C@H]2N(CC3(C)CN(C(=O)c4cccc5cccnc45)C3)C(=O)O[C@]12C.O=CO [6.17] | >64.00 | <0.06 | >64.00 | 0.12 |  |  |  | 
CC[C@H]1OC(=O)[C@H](C)C(=O)[C@H](C)[C@@H](O[C@@H]2O[C@H](C)C[C@H](N(C)C)[C@H]2O)[C@](C)(OC)C[C@@H](C)C(=O)[C@H](C)[C@H]2N(CC3(C)CN(C(=O)c4cnc5ccccc5c4)C3)C(=O)O[C@]12C.O=CO [6.12] | >64.00 | <0.06 | 0.25 | 0.12 |  |  |  | 
CC[C@H]1OC(=O)[C@H](C)C(=O)[C@H](C)[C@@H](O[C@@H]2O[C@H](C)C[C@H](N(C)C)[C@H]2O)[C@](C)(OC)C[C@@H](C)C(=O)[C@H](C)[C@H]2N(CC3(C)CN(C(=O)c4ccc5ncsc5c4)C3)C(=O)O[C@]12C.O=CO [6.19] | >64.00 | <0.06 | 1 | 0.5 |  |  |  | 

Source: US7462600B2, “Macrolides” (Pfizer Inc, priority 2004, dated 2008)
